Assay results from US20240317748A1, “CARBONYL SUBSTITUTED DIAZASPIRO COMPOUNDS AND ITS USE” (BIONOVA PHARMACEUTICALS (SHANGHAI) LIMITED, priority 2021, published 2024).

Key:
OCI-AML3 cells = experiment: Cell proliferation assay (CellTiter-Glo), OCI-AML3; format: cell-based, human; settings: OCI-AML3 (NPM1c mutation), 5 days incubation; read-out: Cell antiproliferation assay OCI-AML3 IC50
Method: (§1) The antiproliferative activity of test compounds was assessed in human leukemia cell lines. The cell line MV4-11, MOLM13 and OCI-AML3, which expresses the MLL fusion protein MLL-AF4, MLL-AF9 and carry the NPM1c gene mutation, respectively, were tested. HL-60 was used as a control cell line containing two MLL wildtype alleles in order to exclude compounds that display general cytotoxic effect. MV4-11 cells were cultured in IMDM supplemented with 10% FBS, MOLM13 and OCI-AML3 cells were cultured in RPMI1640 supplemented with 20% FBS, and HL-60 cells were cultured in IMDM supplemented with 20% FBS. Corresponding cells (MV4-11, MOLM13, OCI-AML3 or HL-60 cell line) were seeded in 100 uL medium per well in 96-well plate (white wall with clear bottom, tissue culture treated, Corning, Cat. No. CLS3903; Lot.No. 30419025). Plates were placed in the CO2 incubator overnight. Compounds solution (2 mM starting, 4-fold serial dilution) were prepared and added to the wells containing 100 μL of the culture medium with HPD300 according to the plate map and centrifuge at 1000 rpm for 1 minutes (200-fold dilution totally). MV4-11, MOLM13, OCI-AML3 and HL-60 cells were incubated with the compounds for 4, 12, 5 and 4 days, respectively, under 5% CO2 at 37° C., respectively. 100 μL of CellTiter-Glo reagent (Promega, Cat. No. G7573, Lot. No. 0000416710) was added to the assay plate by Multidrop Combi instrument, contents were mixed for 10 minutes on an orbital shaker to induce cell lysis. After incubation at room temperature for 10 mins, clear bottom with white back seal was pasted and luminescence with Envision was read.

HL-60 cells = experiment: Cell proliferation assay (CellTiter-Glo), HL-60 control line; format: cell-based, human; settings: 4 days incubation
Method: as §1

MV-4-11 cells = experiment: Cell proliferation assay (CellTiter-Glo), MV-4-11; format: cell-based, human; settings: MV-4-11 (MLL-AF4), 4 days incubation; read-out: Cell antiproliferation assay MV-4-11 IC50
How it was run: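 Antiproliferative activity by CellTiter-Glo luminescence; MV4-11 (MLL-AF4) in IMDM/10% FBS, 4 days; MOLM13 (MLL-AF9) in RPMI1640/20% FBS, 12 days; OCI-AML3 (NPM1c) in RPMI1640/20% FBS, 5 days; HL-60 (MLL wild-type control) in IMDM/20% FBS, 4 days. Compounds 4-fold serial from 2 mM stock, 200-fold final dilution; 37 °C, 5% CO2.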

hERG potassium channel = biological target: T1, hERG potassium channel (Homo sapiens, UniProt Q12809); experiment: hERG inhibition study (Qpatch, CHO-hERG cells); format: cell-based; settings: highest test concentration 40 μM
T1 construct: expressed in transfected cells; host or cells: CHO-hERG cells
Method: The inhibition effects of the test compounds on hERG were carried out in CHO-hERG cells (cell density: 21.5×10˜6/mL). 10 μL compound mother liquor was added to 20 μL DMSO solution, and then continuously diluted to 6 concentrations by 3-fold. The compound solution (4 uL) of six different concentrations were added to the extracellular solution (996 uL) and diluted to the final concentration to be tested (250-fold dilution totally). The highest test concentration was 40.00 μM, followed by […], 13.3, 4.4, 1.48, 0.49 and 0.16 μM. […] The high impedance sealing of single cell and the formation of whole cell model were all completed automatically by Qpatch instrument.

[1] = Liver microsome stability study; format: in vitro ADME; settings: human liver microsomes 0.5 mg/mL, 1 μM compound, NADPH, 37° C.
Method: Studies were carried out in liver microsomes (Corning, 0.5 mg/mL). Stock solutions were prepared at 10 mM in DMSO for the test compounds. Aliquots of the stock solutions were diluted to 0.5 mM with acetonitrile, and then further diluted upon the addition of liver microsomes/buffer to 1.5 μM. An aliquot of 30 μL of 1.5 μM solutions was mixed with 15 μL of 6 mM NADPH and the final concentration of NADPH was 2 mM, which had been pre-warmed to 37° C. Test compounds and Ketanserin final concentrations were 1 μM. The plates were kept in a 37° C. water bath for the duration of the experiment. At each time point (0, 5, 15, 30, 45 minutes), 135 μL of acetonitrile was added into corresponding wells. After the final time point was quenched by acetonitrile, the assay plates were shaken at the vibrator (IKA, MTS 2/4) for 10 min (600 rpm/min) and then centrifuged at 5,594 g for 15 min (Thermo Multifuge×3R). Aliquots of the supernatant were taken, diluted 1:1 into distilled water, and analyzed by LC-MS/MS. The peak area response ratio to internal standard (PARR) of the compounds at 5, 15, 30, 45 minutes was compared to the PARR at time 0 to determine the percent of test compound remaining at each time point. Half-lives were calculated using Excel software, fitting to a single-phase exponential decay equation.

MOLM13 cells = experiment: Cell proliferation assay (CellTiter-Glo), MOLM13; format: cell-based, human; settings: MOLM13 (MLL-AF9), 12 days incubation; read-out: Cell antiproliferation assay MOLM13 IC50
Method: as §1

Menin-MLL1 = biological target: T2, Menin-MLL1 (Homo sapiens, UniProt O00255); experiment: Menin-MLL1 inhibition assay (fluorescence polarization, Menin protein + FAM-MLL peptide); format: binding; settings: Menin (2-610) isoform 2, FAM-labelled MLL peptide, mP readout; read-out: Biochemical assay Menin-MLL1 IC50
T2 construct: Menin (2-610) isform2; purchased ChemPartner 2020111101
T2 sequence (O00255 2-610): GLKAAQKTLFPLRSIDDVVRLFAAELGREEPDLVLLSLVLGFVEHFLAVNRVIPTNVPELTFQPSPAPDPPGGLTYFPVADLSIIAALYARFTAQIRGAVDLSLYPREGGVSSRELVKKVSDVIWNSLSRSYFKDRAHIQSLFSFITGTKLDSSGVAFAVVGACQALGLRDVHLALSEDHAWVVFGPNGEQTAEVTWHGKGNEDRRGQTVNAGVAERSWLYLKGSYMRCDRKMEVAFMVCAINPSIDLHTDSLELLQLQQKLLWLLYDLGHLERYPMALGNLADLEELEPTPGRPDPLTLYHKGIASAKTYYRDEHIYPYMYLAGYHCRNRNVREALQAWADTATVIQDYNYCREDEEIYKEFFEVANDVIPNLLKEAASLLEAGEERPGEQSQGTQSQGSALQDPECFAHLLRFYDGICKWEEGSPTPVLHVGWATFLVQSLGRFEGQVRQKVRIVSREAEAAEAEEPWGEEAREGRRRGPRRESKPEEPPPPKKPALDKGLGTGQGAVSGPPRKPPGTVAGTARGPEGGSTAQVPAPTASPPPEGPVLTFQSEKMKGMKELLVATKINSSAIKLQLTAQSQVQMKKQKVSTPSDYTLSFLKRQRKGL

T1 sequence (Q12809 whole entry): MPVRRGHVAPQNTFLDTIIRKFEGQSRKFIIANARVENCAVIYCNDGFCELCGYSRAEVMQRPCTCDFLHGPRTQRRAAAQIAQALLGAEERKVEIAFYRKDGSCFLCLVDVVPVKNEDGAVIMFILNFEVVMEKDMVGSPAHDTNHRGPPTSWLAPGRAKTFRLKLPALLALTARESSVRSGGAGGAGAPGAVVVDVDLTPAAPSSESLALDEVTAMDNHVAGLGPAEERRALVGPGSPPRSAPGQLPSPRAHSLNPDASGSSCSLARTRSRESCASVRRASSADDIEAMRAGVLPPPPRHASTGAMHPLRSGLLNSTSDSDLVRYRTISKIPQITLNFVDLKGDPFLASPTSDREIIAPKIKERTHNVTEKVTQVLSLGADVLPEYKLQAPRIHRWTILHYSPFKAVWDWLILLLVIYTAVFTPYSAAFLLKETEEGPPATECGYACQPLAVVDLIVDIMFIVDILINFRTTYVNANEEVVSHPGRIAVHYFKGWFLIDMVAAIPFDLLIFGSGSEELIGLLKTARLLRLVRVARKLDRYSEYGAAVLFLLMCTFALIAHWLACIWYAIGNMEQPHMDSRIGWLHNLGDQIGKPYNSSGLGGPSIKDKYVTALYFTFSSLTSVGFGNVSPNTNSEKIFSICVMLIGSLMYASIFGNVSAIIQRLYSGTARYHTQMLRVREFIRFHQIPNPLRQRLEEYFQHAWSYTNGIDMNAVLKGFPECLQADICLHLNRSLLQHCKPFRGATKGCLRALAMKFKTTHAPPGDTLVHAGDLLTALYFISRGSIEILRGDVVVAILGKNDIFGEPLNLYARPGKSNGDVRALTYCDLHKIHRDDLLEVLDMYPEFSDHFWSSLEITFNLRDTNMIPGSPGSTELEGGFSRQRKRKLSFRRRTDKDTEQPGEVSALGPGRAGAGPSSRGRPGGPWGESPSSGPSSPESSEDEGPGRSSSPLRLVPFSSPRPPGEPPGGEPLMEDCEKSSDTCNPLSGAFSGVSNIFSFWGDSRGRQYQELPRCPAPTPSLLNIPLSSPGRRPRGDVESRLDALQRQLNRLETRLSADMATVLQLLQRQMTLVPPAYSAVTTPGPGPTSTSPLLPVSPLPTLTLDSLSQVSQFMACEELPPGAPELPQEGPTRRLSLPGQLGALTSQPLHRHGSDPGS

- IC50 (OCI-AML3 cells): 74.7 nM
- IC50 (HL-60 cells; HL-60 control line (MLL wildtype), read-out: Cell antiproliferation assay HL-60 IC50): 7970 nM
- IC50 (MV-4-11 cells): 8 nM
- Human liver microsome T1/2 [1]: 12 min
- IC50 (MOLM13 cells): 21.6 nM
- IC50 (Menin-MLL1): 3.4 nM
Compound: CCN(C(=O)c1cc(F)ccc1Oc1cncnc1N1CC2(CCN(C[C@H]3CC[C@H](NS(=O)(=O)CC)CC3)CC2)C1)C(C)C [SNDX-5613, reference compound]
- HL-60 (Pct of inhibition at 10 μM) (HL-60 cells; HL-60 control line, 10 μM): 98.9%
- IC50 (hERG potassium channel): 9600 nM
